Publication PMC7789826 (Journal of Molecular Structure, 2021)

Molecular target: voltage-gated potassium channel Kv1.3 (Homo sapiens, UniProt P22001)
Assay: whole-cell patch clamp, voltage ramp, endogenous Kv1.[…] current in Jurkat T cells
Type: cell-based

Sequence of voltage-gated potassium channel Kv1.3 (P22001 whole entry): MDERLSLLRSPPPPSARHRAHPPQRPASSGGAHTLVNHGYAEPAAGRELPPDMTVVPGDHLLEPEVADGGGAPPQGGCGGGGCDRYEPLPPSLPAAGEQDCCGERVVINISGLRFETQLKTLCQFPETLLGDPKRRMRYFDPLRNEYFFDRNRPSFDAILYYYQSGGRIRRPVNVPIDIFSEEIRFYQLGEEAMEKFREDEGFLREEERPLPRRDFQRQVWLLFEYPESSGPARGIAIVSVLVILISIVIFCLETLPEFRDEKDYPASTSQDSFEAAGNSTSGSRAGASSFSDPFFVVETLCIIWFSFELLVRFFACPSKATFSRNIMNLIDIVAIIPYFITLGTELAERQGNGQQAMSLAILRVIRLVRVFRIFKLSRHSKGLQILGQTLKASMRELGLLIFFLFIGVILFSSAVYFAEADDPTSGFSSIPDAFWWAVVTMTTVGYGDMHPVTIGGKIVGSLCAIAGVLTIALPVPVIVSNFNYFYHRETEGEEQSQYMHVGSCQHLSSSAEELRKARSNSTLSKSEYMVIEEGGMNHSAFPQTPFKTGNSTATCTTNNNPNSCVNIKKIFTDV

SMILES	EC50
CCC(C)(C)C(=O)O[C@H]1C[C@@H](C)C=C2C=C[C@H](C)[C@H](CC[C@@H]3C[C@@H](O)CC(=O)O3)[C@H]21 [simvastatin]	4.85 µM
CC[C@H](C)C(=O)O[C@H]1CCC=C2C=C[C@H](C)[C@H](CC[C@@H]3C[C@@H](O)CC(=O)O3)[C@H]21 [mevastatin]	6.04 µM
